Source: patent US11457624B2, “Adjuvant compositions for plant treatment chemicals” (CORBET SCIENTIFIC, LLC, priority 2016, dated 2022)

Key:
[1] = system: woody shrubs and mixed grasses; details: general statement, no source given; cited from earlier work
[2] = system: bacterial spot (Xanthomonas euvesicatoria) on pepper; assay: Bacterial spot on pepper, field trial (disease severity, AUDPC); type: in vivo
Protocol: (§1) Field studies were conducted at the University of Florida, Southwest Florida Research and Education Center, Immokalee, Fla. For pepper trials, average monthly high and low temperatures were 98° F. and 70° F. in month one; 94° F. and 63° F. in month two; and 94° F. and 51° F. in month three; rainfall totaled 11.02, 0.95, and 2.41 inches for the same monthly periods, respectively. For squash trials, average monthly high and low temperatures were 93° F. and 45° F. in month one; 96° F. and 55° F. in month two; and 96° F. and 55° F. in month three; rainfall totaled 2.00, 3.35, and 5.59 inches for the same monthly periods, respectively.
(§2) In all trials, seedlings were transplanted into Immokalee fine sand on day 0. Treatments were arranged in a complete randomized block treatment design with four replicates. For pepper trials, ‘Capistrano’ seedlings were arranged in plots comprising 10 plants in a single row spaced 10 inches apart within a 36 inch wide row with 5 feet between each plot and 12 feet center to center between rows. For squash trials, four week old ‘Dixie’ plants were arranged in plots comprising eight plants spaced 3 feet apart with a 27 foot row and with 10 feet between each plot.
(§3) Each treatment formulation was spray applied. For pepper trials, treatment formulations were applied using a backpack CO2 sprayer at 40 psi with a single hollow-cone nozzle at 30 gal/A. Silicon was applied as sodium metasilicate nonahydrate (Na2SiO3.9H2O). For squash trials, treatment formulations were applied with a high clearance sprayer 2 mph and at 200 psi. A double drop boom equipped with six nozzles delivered a spray volume of 90 gal/A for tomato plants or 80 gal/A for squash plants.
For pepper trials, a suspension of inoculum of bacterial spot containing strains of several races was applied at day 22 and new inoculum was introduced periodically throughout the remainder of the trial.
(§4) For each trial, disease severity was assessed by visually estimating the percentage of foliage with symptoms of disease. For pepper trials, plants were examined for symptoms of bacterial spot. For squash trials, plants were examined for powdery mildew. The area under the disease progress curve (AUDPC) was calculated from disease severity ratings. In some trials, fruit was harvested and evaluated for the amount of marketable fruit produced per plot. Data were analyzed within the statistical program of ARM 9.1 (pepper trials) or ARM 9.0 (tomato and squash trials) by ANOVA and means separated by LSD.
Transplanted Capsicum annuum ‘Capistrano’ pepper seedlings were grouped into one of six treatment groups. Group one was an untreated control. The remaining five groups were spray treated with formulations that differed in their chemical compositions (Table 7).
plants on days 14, 21, 28, 35, 42, 49, 56, 64, 71, 77, and 84. Plants were inoculated with a bacterial suspension (Xanthomonas euvesicatoria) on day 22 and periodically throughout the remainder of the trial. […]

[3] = system: Capsicum annuum Capistrano pepper plants; assay: Pepper harvest data, field trial; type: in vivo
Protocol: as §1, §2, §3, §4
Fruit was harvested on days 61 and 83.

[4] = sprays A-K, rates as in Table 7

## CC(C)C1(C)N=C(c2ncccc2C(=O)O)NC1=O (stereo not shown) [Imazapyr]
[1]
  time normally required to begin to see an effect on grassy plants: 2-5 months

## O.O.O.O.O.O.O.O.O.O=[Si]([O-])[O-].[Na+].[Na+] [Silicon, sodium metasilicate nonahydrate]
[2]; calculated from disease severity ratings
  AUDPC (area under the disease progress curve): 518.42 ab
[2]; sprays A-K (Day 14-84), rates as in Table 7, inoculated day 22
  Disease Severity Day 41: 10.3 a percentage of symptomatic foliage
[2]; [4]
  Disease Severity Day 47: 21.5 a percentage of symptomatic foliage
  Disease Severity Day 58: 21.3 ab percentage of symptomatic foliage
  Disease Severity Day 61: 15 ab percentage of symptomatic foliage
  Disease Severity Day 71: 22.5 ab percentage of symptomatic foliage
[3]; Day 61
  Marketable Fruit in Pound per Plot: 2.9 a Pound per Plot
  Number of Marketable Fruit per Plot: 12 a per Plot
[3]; Day 83
  Marketable Number of Fruit per Plot: 26.3 a per Plot
  Marketable fruit weight per plot: 7.38 a Pound per Plot
  Non-Marketable Fruit in Pound per Plot: 0.35 a Pound per Plot
  Non-Marketable Fruit per Plot: 1 ab per Plot
